# Experiments:
# Experiment in all cases: ≥ marks a high value that may be exact or a test limit, other limits are often not marked, values filed in µg/mL are converted to µM
# [1] = test system: Bacillus subtilis IFO 3336
# [2] = test system: Escherichia coli IFO 3301
# [3] = test system: Aeromonas salmonicida NCIMB 1102
# [4] = test system: Bacillus subtilis IAM 1026
# [5] = test system: Escherichia coli JCM 1649
# [6] = test system: Photobacterium damselae subsp. piscicida Sp 9587
# Salmonella typhimurium = test system: Salmonella typhimurium
# [7] = test system: Shewanella putrefaciens IAM 1509
# [8] = test system: Staphylococcus aureus IAM 1011
# [9] = test system: Vibrio anguillarum NCIMB 829
# [10] = test system: Vibrio parahaemolyticus Vp+1
# [11] = test system: Bacillus subtilis DSM 347
# Escherichia coli BL21AI = test system: Escherichia coli BL21AI
# Escherichia coli DC2 = test system: Escherichia coli DC2
# [12] = test system: Escherichia coli DSM 1103
# [13] = test system: Klebsiella pneumoniae DSM 681
# [14] = test system: Micrococcus luteus ATCC 10240
# [15] = test system: Actinomyces naeslundii ATCC 12104
# [16] = test system: Actinomyces viscosus ATCC 15987
# [17] = test system: Bacillus subtilis ATCC 6633
# [18] = test system: Candida albicans ATCC 10231
# [19] = test system: Candida parapsilosis ATCC 22019
# Cryptococcus neoformans = test system: Cryptococcus neoformans
# [20] = test system: Enterococcus faecalis ATCC 29212
# [21] = test system: Escherichia coli ATCC 9637
# [22] = test system: Klebsiella pneumoniae ATCC 27736
# [23] = test system: Lacticaseibacillus casei ATCC 393
# [24] = test system: Lactobacillus acidophilus ATCC 4356
# [25] = test system: Limosilactobacillus fermentum ATCC 9338
# [26] = test system: Pseudomonas aeruginosa ATCC BAA-427
# Sporothrix schenckii = test system: Sporothrix schenckii
# [27] = test system: Staphylococcus aureus ATCC 25923
# [28] = test system: Staphylococcus aureus ATCC 29213
# [29] = test system: Staphylococcus aureus ATCC 33592
# [30] = test system: Staphylococcus aureus ATCC 700698
# [31] = test system: Staphylococcus aureus ATCC 700699
# [32] = test system: Staphylococcus aureus ATCC BAA-44
# [33] = test system: Streptococcus gordonii ATCC 10558
# [34] = test system: Streptococcus mutans UA159
# [35] = test system: Streptococcus sanguinis ATCC 10556
# [36] = test system: Streptococcus sobrinus ATCC 6715
# [37] = test system: Erwinia amylovora PMV 6076
# [38] = test system: Pseudomonas syringae pv. actinidiae Psa3700.1.1
# [39] = test system: Pseudomonas syringae pv. syringae EPS 94
# [40] = test system: Xanthomonas arboricola pv. pruni CFBP 5563
# [41] = test system: Xanthomonas campestris pv. Vesicatoria 2133-2
# [42] = test system: Xanthomonas fragariae Xf349-9A
# [43] = test system: Pseudomonas aeruginosa PAK
# Staphylococcus aureus = test system: Staphylococcus aureus
# [44] = test system: Streptococcus gordonii Challis DL1
# [45] = test system: Streptococcus mitis ATCC 903
# [46] = test system: Streptococcus sanguinis NY101
smiles,measurement,setting,value
NC(N)=NCCC[C@H](NC(=O)[C@H](Cc1cnc[nH]1)NC(=O)[C@H](CCCN=C(N)N)NC(=O)[C@H](Cc1cnc[nH]1)NC(=O)[C@H](CCCN=C(N)N)NC(=O)[C@H](Cc1cnc[nH]1)NC(=O)[C@@H](N)CCCN=C(N)N)C(=O)N[C@@H](Cc1cnc[nH]1)C(=O)O [RHRHRHRH],MIC,[1],8.39 µM
same,MIC,[2],8.39 µM
CC[C@H](C)[C@H](NC(=O)CNC(=O)CNC(=O)[C@@H](NC(=O)[C@@H](N)Cc1ccccc1)[C@@H](C)CC)C(=O)N[C@H](C(=O)N[C@@H](CO)C(=O)N[C@@H](Cc1ccccc1)C(=O)N[C@@H](Cc1ccccc1)C(=O)N[C@@H](CCCCN)C(=O)N[C@@H](CCCN=C(N)N)C(=O)N[C@@H](CC(C)C)C(=O)N[C@@H](Cc1ccccc1)C(=O)O)[C@@H](C)CC [FIGGIISFFKRLF],MIC,[3],≥ 32.4 µM
same,MIC,[4],2.03 µM
same,MIC,[5],≥ 32.4 µM
same,MIC,[6],4.05 µM
same,MIC,Salmonella typhimurium,≥ 32.4 µM
same,MIC,[7],4.05 µM
same,MIC,[8],2.03 µM
same,MIC,[9],8.09 µM
same,MIC,[10],16.2 µM
CC[C@H](C)[C@H](NC(=O)[C@H](Cc1ccc(O)cc1)NC(=O)[C@@H](NC(=O)[C@@H]1CCCN1C(=O)[C@H](CCCN=C(N)N)NC(=O)[C@H](CC(N)=O)NC(=O)[C@H](CC(N)=O)NC(=O)CNC(C)=O)C(C)C)C(=O)N1CCC[C@H]1C(=O)N[C@@H](CCCN=C(N)N)C(=O)N1CCC[C@H]1C(=O)N[C@@H](CCCN=C(N)N)C(=O)N1CCC[C@H]1C(=O)N1CCC[C@H]1C(=O)N[C@@H](Cc1cnc[nH]1)C(=O)N1CCC[C@H]1C(=O)N[C@@H](CCCN=C(N)N)C(=O)N[C@@H](CC(C)C)C(N)=O [GNNRPVYIPRPRPPHPRL],MIC,[11],≥ 58.5 µM
same,MIC,Escherichia coli BL21AI,1.49 µM
same,MIC,Escherichia coli DC2,1.83 µM
same,MIC,[12],1.83 µM
same,MIC,[13],1.83 µM
same,MIC,[14],0.913 µM
CC[C@H](C)[C@H](NC(=O)[C@H](C)NC(=O)[C@H](CCCCN)NC(=O)CNC(=O)[C@H](C)NC(=O)[C@H](Cc1cnc[nH]1)NC(=O)[C@@H](NC(=O)[C@H](C)NC(=O)CNC(=O)[C@H](CCCCN)NC(=O)[C@@H](NC(=O)[C@H](CC(C)C)NC(=O)[C@H](Cc1c[nH]c2ccccc12)NC(=O)CNC(=O)[C@H](Cc1ccccc1)NC(=O)[C@@H](N)Cc1ccccc1)[C@@H](C)CC)[C@@H](C)CC)C(=O)N[C@@H](Cc1cnc[nH]1)C(=O)NCC(=O)N[C@@H](CC(C)C)C(=O)N[C@H](C(=O)N[C@@H](Cc1cnc[nH]1)C(=O)N[C@@H](CCCN=C(N)N)C(=O)N[C@@H](CCCN=C(N)N)C(=O)N[C@@H](CCCN=C(N)N)C(=O)N[C@@H](Cc1cnc[nH]1)C(=O)O)[C@@H](C)CC [FFGWLIKGAIHAGKAIHGLIHRRRH],MIC,[15],2.77 µM
same,MIC,[16],2.77 µM
same,MIC,[17],6 µM
same,MIC,[18],6.8 µM
same,MIC,[19],3 µM
same,MIC,Cryptococcus neoformans,3 µM
same,MIC,[20],3.91 µM
same,MIC,[21],3.4 µM
same,MIC,[22],3 µM
same,MIC,[23],1.38 µM
same,MIC,[24],1.96 µM
same,MIC,[25],1.38 µM
same,MIC,[26],6.8 µM
same,MIC,Sporothrix schenckii,13.6 µM
same,MIC,[27],3 µM
same,MIC,[28],1.6 µM
same,MIC,[29],1.6 µM
same,MIC,[30],3 µM
same,MIC,[31],1.6 µM
same,MIC,[32],1.6 µM
same,MIC,[33],2.77 µM
same,MIC,[34],1.38 µM
same,MIC,[35],1.96 µM
same,MIC,[36],1.38 µM
CSCC[C@H](NC(=O)[C@@H](NC(=O)[C@H](Cc1ccc(O)cc1)NC(=O)[C@H](CO)NC(=O)[C@H](CS)NC(=O)[C@@H](N)Cc1ccc(O)cc1)[C@@H](C)O)C(=O)N[C@@H](CCC(=O)O)C(=O)N[C@@H](C)C(N)=O [YCSYTMEA],MIC,[37],≥ 50 µM
same,MIC,[38],≥ 50 µM
same,MIC,[39],≥ 50 µM
same,MIC,[40],≥ 50 µM
same,MIC,[41],≥ 50 µM
same,MIC,[42],≥ 50 µM
CC[C@H](C)[C@H](NC(=O)[C@H](Cc1ccccc1)NC(=O)[C@H](Cc1cnc[nH]1)NC(=O)[C@H](CCCCN)NC(=O)[C@@H](NC(=O)[C@@H](N)Cc1ccccc1)[C@@H](C)CC)C(=O)N[C@@H](Cc1cnc[nH]1)C(=O)N[C@@H](CCCN=C(N)N)C(=O)N[C@@H](Cc1ccccc1)C(=O)NCC(=O)NCC(=O)NCC(=O)N[C@@H](Cc1ccccc1)C(=O)N[C@@H](CCCCN)C(=O)N[C@@H](CCCCN)C(=O)N[C@@H](Cc1ccccc1)C(=O)N[C@@H](Cc1c[nH]c2ccccc12)C(=O)N[C@@H](CCCCN)C(=O)N[C@@H](Cc1c[nH]c2ccccc12)C(=O)N[C@@H](Cc1ccccc1)C(=O)N[C@@H](CCCN=C(N)N)C(=O)N[C@@H](CCCN=C(N)N)C(=O)N[C@@H](Cc1ccccc1)C(N)=O [FIKHFIHRFGGGFKKFWKWFRRF],MIC,[43],20.3 µM
same,MIC,Staphylococcus aureus,5.21 µM
same,MIC,[44],20.3 µM
same,MIC,[45],10.4 µM
same,MIC,[34],1.3 µM
same,MIC,[46],5.21 µM

# Reference: DBAASP
